Values of other authors as cited in patent US11252971B2, “Antimicrobial packaging films” (Cryovac, LLC, priority 2017, dated 2022).

Settings: GRAS by the U.S. Food and Drug Administration

CCCCCCCCCCCC(=O)N[C@@H](CCCNC(=N)N)C(=O)OCC.Cl [LAE, ethyl-N^α-dodecanoyl-L-arginate.HCl]
Toxicity: nontoxic
